Assay results taken from patent US20050112573A1, “Method of detecting toxic substance” (priority 2001, published 2005).

Tested on: yeast genes (level of expressed mRNA)
Assay: DNA chip analysis of expressed mRNA of yeast genes after 2 h culture with a toxic chemical substance
Format: cell-based, Saccharomyces cerevisiae S288C
Description: Yeast (Saccharomyces cerevtisiae S288C (α SUC2mal mel gap2 CUP1)) were cultured at 25° C. on YPD medium (yeast extract 1%, polypepton 2%, glucose 2%). One of toxic chemical substances was added to the cell at logarithmic growth phase, and the cell was further cultured for two hours. Cell was cultured without any chemical substance in the same condition, and was used as control. Concentrations of the chemical substances were defined to inhibit the growth of the yeast but not lead to death.
After the completion of cultivation, the culture was centrifuged to collect the cells. To the cells, sodium acetate buffer (50 mM sodium acetate, 10 mM EDTA, 1% SDS) was added, and the mixture was shaken at 65° C. for five minutes, followed by returning to room temperature, and obtaining the supernatant, which procedure was repeated two times. To the supernatant, ½ amount of a solution of phenol/chloroform was added, and the mixture was centrifuged to give a supernatant, which was added with an equal amount of chloroform, and the mixture was centrifuged to give a supernatant. To the supernatant, an equal amount of isopropanol containing 0.3 M sodium acetate was added, and the mixture was allowed to stand at room temperature for 30 minutes, after which the mixture was centrifuged to give a sediment of the whole RNAs. Seventy % ethanol was added to the sediment, and the mixture was again centrifuged to give a sediment, which was then dried and dissolved in water. mRNA was isolated from the whole RNAs as followings. In view of the fact that a poly A chain is attached to the 3′ terminus of mRNA, a polynucleotide having a poly T structure which was immobilized on the surface of latex beads was used to trap the mRNA, and then the mRNA was washed and eluted with spine column (Oligotex-dT30<Super>mRNA Purification Kit, Takara). Reverse transcription of the mRNA was conducted with a reverse transcriptase (Super Script II Reverse Transcriptase; catalogue No. 18064-014, GibcoBRL) using fluorescence-labeled nucleotides to give cDNAs that were introduced with Cy3-dUTP or Cy5-dUTP during the reverse transcription.
The labeled cDNAs were dissolved in TE buffer (10 mM Tris-HCl/1 mM EDTA, pH8.0), and the solution was dropped on the DNA chip containing the whole genes of yeast (DNA Chip Research Inc. Japan) so that the cDNAs were hybridized on the DNA chip at 65° C. for over 12 hours. The fluoresces intensity of the DNA chip was read with a scanner, and the ratio relative to the fluorescence intensity resulting from the absence of chemical substance was estimated as the following, which is shown in Tables 1 to 9: [formula]
In the Tables, “Intensity” indicated in the rightmost column is a value of the level of expressed mRNA of each gene in control cells as divided by the average level of the expressions of the whole genes.

## CN(C)C(=S)SSC(=S)N(C)C [(10), Tetramethylthiuram disulfide]
Yeast gene YKL013C
  The level of expressed mRNA in the presence of chemical substance/The level of expressed mRNA in the absence of chemical substance: 1.4
Yeast gene YKL039W
  The level of expressed mRNA in the presence of chemical substance/The level of expressed mRNA in the absence of chemical substance: 3.3
Yeast gene YKL041W
  The level of expressed mRNA in the presence of chemical substance/The level of expressed mRNA in the absence of chemical substance: 1.5
Yeast gene YKL096W
  The level of expressed mRNA in the presence of chemical substance/The level of expressed mRNA in the absence of chemical substance: 0.5
Yeast gene YKL165C
  The level of expressed mRNA in the presence of chemical substance/The level of expressed mRNA in the absence of chemical substance: 0.4
Yeast gene YKL193C
  The level of expressed mRNA in the presence of chemical substance/The level of expressed mRNA in the absence of chemical substance: 1.6
Yeast gene YLR120C
  The level of expressed mRNA in the presence of chemical substance/The level of expressed mRNA in the absence of chemical substance: 1.6
Yeast gene YLR136C
  The level of expressed mRNA in the presence of chemical substance/The level of expressed mRNA in the absence of chemical substance: 6.0
Yeast gene YLR178C
  The level of expressed mRNA in the presence of chemical substance/The level of expressed mRNA in the absence of chemical substance: 4.1
Yeast gene YLR250W
  The level of expressed mRNA in the presence of chemical substance/The level of expressed mRNA in the absence of chemical substance: 2.4
Yeast gene YLR327C
  The level of expressed mRNA in the presence of chemical substance/The level of expressed mRNA in the absence of chemical substance: 8.3
Yeast gene YLR356W
  The level of expressed mRNA in the presence of chemical substance/The level of expressed mRNA in the absence of chemical substance: 1.6
Yeast gene YLR362W
  The level of expressed mRNA in the presence of chemical substance/The level of expressed mRNA in the absence of chemical substance: 3.3
Yeast gene YLR391W
  The level of expressed mRNA in the presence of chemical substance/The level of expressed mRNA in the absence of chemical substance: 0.7
Yeast gene YLR429W
  The level of expressed mRNA in the presence of chemical substance/The level of expressed mRNA in the absence of chemical substance: 1.3
Yeast gene YMR004W
  The level of expressed mRNA in the presence of chemical substance/The level of expressed mRNA in the absence of chemical substance: 3.4
Yeast gene YMR094W
  The level of expressed mRNA in the presence of chemical substance/The level of expressed mRNA in the absence of chemical substance: 0.9
Yeast gene YMR104C
  The level of expressed mRNA in the presence of chemical substance/The level of expressed mRNA in the absence of chemical substance: 3.2
Yeast gene YMR219W
  The level of expressed mRNA in the presence of chemical substance/The level of expressed mRNA in the absence of chemical substance: 0.9
Yeast gene YMR226C
  The level of expressed mRNA in the presence of chemical substance/The level of expressed mRNA in the absence of chemical substance: 2.2
Yeast gene YMR275C
  The level of expressed mRNA in the presence of chemical substance/The level of expressed mRNA in the absence of chemical substance: 2.1
Yeast gene YMR276W
  The level of expressed mRNA in the presence of chemical substance/The level of expressed mRNA in the absence of chemical substance: 1.7
Yeast gene YMR314W
  The level of expressed mRNA in the presence of chemical substance/The level of expressed mRNA in the absence of chemical substance: 2.7
Yeast gene YNL006W
  The level of expressed mRNA in the presence of chemical substance/The level of expressed mRNA in the absence of chemical substance: 4.0
Yeast gene YNL007C
  The level of expressed mRNA in the presence of chemical substance/The level of expressed mRNA in the absence of chemical substance: 1.7
Yeast gene YNL093W
  The level of expressed mRNA in the presence of chemical substance/The level of expressed mRNA in the absence of chemical substance: 2.0
Yeast gene YNL333W
  The level of expressed mRNA in the presence of chemical substance/The level of expressed mRNA in the absence of chemical substance: 2.1
Yeast gene YNR010W
  The level of expressed mRNA in the presence of chemical substance/The level of expressed mRNA in the absence of chemical substance: 0.9
Yeast gene YNR069C
  The level of expressed mRNA in the presence of chemical substance/The level of expressed mRNA in the absence of chemical substance: 5.8
Yeast gene YOL013C
  The level of expressed mRNA in the presence of chemical substance/The level of expressed mRNA in the absence of chemical substance: 1.0
Yeast gene YOL164W
  The level of expressed mRNA in the presence of chemical substance/The level of expressed mRNA in the absence of chemical substance: 3.6
Yeast gene YOR036W
  The level of expressed mRNA in the presence of chemical substance/The level of expressed mRNA in the absence of chemical substance: 1.9
Yeast gene YOR117W
  The level of expressed mRNA in the presence of chemical substance/The level of expressed mRNA in the absence of chemical substance: 1.8
Yeast gene YOR124C
  The level of expressed mRNA in the presence of chemical substance/The level of expressed mRNA in the absence of chemical substance: 1.9
Yeast gene YOR132W
  The level of expressed mRNA in the presence of chemical substance/The level of expressed mRNA in the absence of chemical substance: 1.6
Yeast gene YOR157C
  The level of expressed mRNA in the presence of chemical substance/The level of expressed mRNA in the absence of chemical substance: 2.6
Yeast gene YOR181W
  The level of expressed mRNA in the presence of chemical substance/The level of expressed mRNA in the absence of chemical substance: 0.5
Yeast gene YOR185C
  The level of expressed mRNA in the presence of chemical substance/The level of expressed mRNA in the absence of chemical substance: 2.9
Yeast gene YOR198C
  The level of expressed mRNA in the presence of chemical substance/The level of expressed mRNA in the absence of chemical substance: 1.4
Yeast gene YOR259C
  The level of expressed mRNA in the presence of chemical substance/The level of expressed mRNA in the absence of chemical substance: 1.5
Yeast gene YOR261C
  The level of expressed mRNA in the presence of chemical substance/The level of expressed mRNA in the absence of chemical substance: 2.5
Yeast gene YOR288C
  The level of expressed mRNA in the presence of chemical substance/The level of expressed mRNA in the absence of chemical substance: 1.0
Yeast gene YOR355W
  The level of expressed mRNA in the presence of chemical substance/The level of expressed mRNA in the absence of chemical substance: 0.8
Yeast gene YOR383C
  The level of expressed mRNA in the presence of chemical substance/The level of expressed mRNA in the absence of chemical substance: 4.5
Yeast gene YPL089C
  The level of expressed mRNA in the presence of chemical substance/The level of expressed mRNA in the absence of chemical substance: 2.5
Yeast gene YPL109C
  The level of expressed mRNA in the presence of chemical substance/The level of expressed mRNA in the absence of chemical substance: 1.5
Yeast gene YPL149W
  The level of expressed mRNA in the presence of chemical substance/The level of expressed mRNA in the absence of chemical substance: 3.7
Yeast gene YPL154C
  The level of expressed mRNA in the presence of chemical substance/The level of expressed mRNA in the absence of chemical substance: 1.7
Yeast gene YPR103W
  The level of expressed mRNA in the presence of chemical substance/The level of expressed mRNA in the absence of chemical substance: 2.0
Yeast gene YPR108W
  The level of expressed mRNA in the presence of chemical substance/The level of expressed mRNA in the absence of chemical substance: 2.8
